This is an account of results in patent US5723468A, “6-membered ring fused imidazoles as muscarinic agents” (priority 1996, dated 1998).

Series [1] has as its target T1, M1 acetylcholine receptors (ml receptors in CHO cells) (Homo sapiens, UniProt P11229).
T1 sequence (P11229 1-460): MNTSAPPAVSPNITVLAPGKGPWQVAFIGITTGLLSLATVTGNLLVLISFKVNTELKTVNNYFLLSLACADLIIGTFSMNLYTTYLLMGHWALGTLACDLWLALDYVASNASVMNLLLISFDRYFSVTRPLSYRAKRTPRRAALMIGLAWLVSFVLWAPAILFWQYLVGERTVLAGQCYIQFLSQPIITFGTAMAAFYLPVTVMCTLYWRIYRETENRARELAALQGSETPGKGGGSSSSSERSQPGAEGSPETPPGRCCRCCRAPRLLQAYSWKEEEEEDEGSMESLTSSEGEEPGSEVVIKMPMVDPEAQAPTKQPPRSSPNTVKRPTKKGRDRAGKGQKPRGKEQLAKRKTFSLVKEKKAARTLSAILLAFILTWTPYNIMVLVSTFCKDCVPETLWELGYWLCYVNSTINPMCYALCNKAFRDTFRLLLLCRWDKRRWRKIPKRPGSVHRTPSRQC
Kind of series: stimulation of phosphoinositide (PI) hydrolysis in transfected CHO cells. The conditions noted are these: 1 h, read-out: % PI Hydrolysis ml receptors in CHO cells 30 × Ki (μM), carb = 100%. The class given is cell-based.

In series [2] the test system is mild to moderate Alzheimer's Disease. The conditions noted are these: cited from earlier work; for improvement in memory: patients with mild to moderate Alzheimer's Disease.

Molecules are shown by their SMILES.

For the molecule `Cn1cnc2c(O[C@@H]3CN4CC[C@H]3C4)nccc21` (relative stereo) [Example 1, endo-4-(1-Aza-bicyclo[2.2.1]hept-3-yloxy)-1-methyl-1H-imidazol[4,5-c]pyridine], in series [1], the Emax was determined as 25%. For `Cn1cnc2c(O[C@@H]3CN4CC[C@H]3C4)nccc21` (single isomer, unassigned) [Example 3, (-)-endo-4-(1-Aza-bicyclo[2.2.1]hept-3-yloxy)-1methyl-1H-imidazol[4,5-c]pyridine], the Emax in series [1] worked out at 20.6%. Still for that read-out and setting: the value for `c1ccc(Cn2cnc3c(OC4CN5CCC4CC5)nccc32)cc1` (single isomer, unassigned; (-)) [Example 7, (-)-3-(1-Benzyl-1H-imidazol[4,5-c]pyridin-4-yloxy)-1-aza-bicyclo[2,2,2]octane] was 18.4%. `c1ccc(Cn2cnc3c(OC4CN5CCC4CC5)nccc32)cc1` (stereo not shown) [Example 5, 3-(1-Benzyl-1H-imidazo[4,5-c]pyridin-4-yloxy)-1-aza-bicyclo[2,2,2]octane]: the Emax in series [1] amounted to 6.8%. For the molecule `COC(=O)C1=CCCN(C)C1` [arecoline], the improvement in memory entry in series [2] is reported as “demonstrated memory improvement in patients with mild to moderate Alzheimer's Disease”.

Consider `Nc1c2c(nc3ccccc13)CCCC2` [tacrine], for which the adverse side effects entry in series [2] (especially at the higher doses where it is most effective) was “adverse side effects especially at the higher doses”. Besides, in series [2], the improvement in memory result is recorded as “improvement in memory can be shown in patients with mild to moderate Alzheimer's Disease”.
